Test results reported in PubChem BioAssay AID1259411 (Chemical Carcinogenesis Research Information System (CCRIS), 2018).
Calls of active or inactive are those of the source. No rule for the calls is given here.

Tested on: rodent carcinogenicity bioassays, tumor incidence
Assay: CCRIS carcinogenicity studies
Outline: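 Archive of carcinogenicity, mutagenicity, tumor promotion and tumor inhibition results drawn from journals, NCI reports and other sources, expert-reviewed; covers 1985-2011 and is no longer updated.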

Structure (SMILES): COc1cc(-c2ccc(N)c(OC)c2)ccc1N
- carcinogen call (Species: HAMSTER, Route: ORAL, Tumor Site: Type of Lesion: FORESTOMACH): active; positive
- carcinogen call (Species: MOUSE, Strain/Sex: BALB/FEMALE, Route: ORAL, Dose: 0, 20, 40, 80, 160, 315, 630 PPM IN DRINKING WATER (STUDY DURATION: 112 WK), Dose: 0, 20, 40, 80, 160, 315, 630 PPM IN DRINKING WATER (STUDY DURATION: 112 WK)): inactive; negative
- carcinogen call (Species: MOUSE, Strain/Sex: BALB/MALE, Route: ORAL, Dose: 0, 20, 40, 80, 160, 315, 630 PPM IN DRINKING WATER (STUDY DURATION: 112 WK), Dose: 0, 20, 40, 80, 160, 315, 630 PPM IN DRINKING WATER (STUDY DURATION: 112 WK)): inactive; negative
- carcinogen call (Species: RAT, Route: ORAL, Tumor Site: Type of Lesion: EAR (ZYMBAL GLAND), URINARY BLADDER, INTESTINES, INTEGUMENTARY SYSTEM (SKIN), Tumor Site: Type of Lesion: EAR (ZYMBAL GLAND), URINARY BLADDER, INTESTINES, INTEGUMENTARY SYSTEM (SKIN)): active; positive
- carcinogen call (Species: RAT, Strain/Sex: F344/FEMALE, Route: ORAL, Dose: 0, 80, 170, 330 PPM IN DRINKING WATER FOR 21 MO ( STUDY DURATION: 93 WK), Dose: 0, 80, 170, 330 PPM IN DRINKING WATER FOR 21 MO ( STUDY DURATION: 93 WK), Tumor Site: Type of Lesion: CLITORAL GLAND: ADENOMA OR CARCINOMA, LARGE INTESTINE: ADENOMATOUS POLYP OR ADENOCARCINOMA, LIVER: NEOPLASTIC NODULE OR, Tumor Site: Type of Lesion: CLITORAL GLAND: ADENOMA OR CARCINOMA, LARGE INTESTINE: ADENOMATOUS POLYP OR ADENOCARCINOMA, LIVER: NEOPLASTIC NODULE OR): active; positive
- carcinogen call (Species: RAT, Strain/Sex: F344/FEMALE, Route: ORAL, Dose: 0, 80, 170, 330 PPM IN DRINKING WATER FOR 21 MO (STUDY DURATION: 21 MO), Dose: 0, 80, 170, 330 PPM IN DRINKING WATER FOR 21 MO (STUDY DURATION: 21 MO), Tumor Site: Type of Lesion: ZYMBAL GLAND: ADENOMA, CARCINOMA, CLITORAL GLAND: ADENOMA, CARCINOMA, LARGE INTESTINE: ADENOMATOUS POLYP OR ADENOCARCINO, Tumor Site: Type of Lesion: ZYMBAL GLAND: ADENOMA, CARCINOMA, CLITORAL GLAND: ADENOMA, CARCINOMA, LARGE INTESTINE: ADENOMATOUS POLYP OR ADENOCARCINO): active; positive
- carcinogen call (Species: RAT, Strain/Sex: F344/MALE, Route: ORAL, Dose: 0, 80, 170, 330 PPM IN DRINKING WATER FOR 21 MO (STUDY DURATION: 21 MO), Dose: 0, 80, 170, 330 PPM IN DRINKING WATER FOR 21 MO (STUDY DURATION: 21 MO), Tumor Site: Type of Lesion: ZYMBAL GLAND: ADENOMA, CARCINOMA, PREPUTIAL GLAND: CARCINOMA, SKIN: BASAL CELL ADENOMA, BASAL CELL CARCINOMA, SQUAMOUS C, Tumor Site: Type of Lesion: ZYMBAL GLAND: ADENOMA, CARCINOMA, PREPUTIAL GLAND: CARCINOMA, SKIN: BASAL CELL ADENOMA, BASAL CELL CARCINOMA, SQUAMOUS C): active; positive
- carcinogen call (Species: RAT, Strain/Sex: F344/MALE, Route: ORAL, Dose: 0, 80, 170, 330 PPM IN DRINKING WATER FOR 21 MO (STUDY DURATION: 93 WK), Dose: 0, 80, 170, 330 PPM IN DRINKING WATER FOR 21 MO (STUDY DURATION: 93 WK), Tumor Site: Type of Lesion: BRAIN: MALIGNANT ASTROCYTOMA, PREPUTIAL GLAND: CARCINOMA, ADENOMA OR CARCINOMA, LARGE INTESTINE: ADENOMATOUS POLYP OR AD, Tumor Site: Type of Lesion: BRAIN: MALIGNANT ASTROCYTOMA, PREPUTIAL GLAND: CARCINOMA, ADENOMA OR CARCINOMA, LARGE INTESTINE: ADENOMATOUS POLYP OR AD): active; positive

Structure (SMILES): CCCc1cc2ccccc2c2ccc3c(c12)C1OC1C(O)C3O (centres undefined)
- carcinogen call (Species: MOUSE, Strain/Sex: ICR/FEMALE, Route: INTRAPERITONEAL, Dose: 0, 8 NMOL IN 5 µL DMSO ON D 1, 16 NMOL IN 10 µL ON D 8 AND 32 NMOL IN 20 µL ON D 15 OF LIFE (STUDY DURATION: 35 WK)): inactive; negative
- carcinogen call (Species: MOUSE, Strain/Sex: ICR/MALE, Route: INTRAPERITONEAL, Dose: 0, 8 NMOL IN 5 µL DMSO ON D 1, 16 NMOL IN 10 µL ON D 8 AND 32 NMOL IN 20 µL ON D 15 OF LIFE (STUDY DURATION: 35 WK)): inactive; negative

Structure (SMILES): CCCN(CCC)C(=O)SCC
- carcinogen call (Species: Mouse, Strain/Sex: Crl:CD-1/Female (60/Group), Route: Oral, Dose: 0, 200, 600, 1800 ppm in diet for 73 wks, study duration 73 wks, Dose: 0, 200, 600, 1800 ppm in diet for 73 wks, study duration 73 wks): inactive; negative
- carcinogen call (Species: Mouse, Strain/Sex: Crl:CD-1/Male (60/Group), Route: Oral, Dose: 0, 200, 600, 1800 ppm in diet for 73 wks, study duration 73 wks, Dose: 0, 200, 600, 1800 ppm in diet for 73 wks, study duration 73 wks): inactive; negative
- carcinogen call (Species: Rat, Strain/Sex: Crl:CD (SD) BR/Female (90/Group), Route: Oral, Dose: 0, 9, 18, 36, 72 mg/kg/day in diet for 2 yr, study duration 2 yr, Dose: 0, 9, 18, 36, 72 mg/kg/day in diet for 2 yr, study duration 2 yr): inactive; negative
- carcinogen call (Species: Rat, Strain/Sex: Crl:CD (SD) BR/Male (90/Group), Route: Oral, Dose: 0, 9, 18, 36, 72 mg/kg/day in diet for 2 yr, study duration 2 yr, Dose: 0, 9, 18, 36, 72 mg/kg/day in diet for 2 yr, study duration 2 yr): inactive; negative

Structure (SMILES): O[C@H]1C=C2c3c(cccc3[C@@H]1O)-c1ccc3ccccc3c12
- carcinogen call (Species: MOUSE, Strain/Sex: CD-1/FEMALE, Route: INTRAPERITONEAL, Dose: 0, 0.275, 1.1 UMOL (TOTAL DOSE) ADMINISTERED OVER DAYS 1, 8, AND 15 OF LIFE (STUDY DURATION: 52 WEEKS), Dose: 0, 0.275, 1.1 UMOL (TOTAL DOSE) ADMINISTERED OVER DAYS 1, 8, AND 15 OF LIFE (STUDY DURATION: 52 WEEKS), Tumor Site: Type of Lesion: LUNG: ALVEOLAR/BRONCHIOLAR CARCINOMA): active; positive
- carcinogen call (Species: MOUSE, Strain/Sex: CD-1/MALE, Route: INTRAPERITONEAL, Dose: 0, 0.275, 1.1 UMOL (TOTAL DOSE) ADMINISTERED OVER DAYS 1, 8, AND 15 OF LIFE (STUDY DURATION: 52 WEEKS), Dose: 0, 0.275, 1.1 UMOL (TOTAL DOSE) ADMINISTERED OVER DAYS 1, 8, AND 15 OF LIFE (STUDY DURATION: 52 WEEKS), Tumor Site: Type of Lesion: LUNG: ALVEOLAR/BRONCHIOLAR CARCINOMA, LIVER: ADENOMA OR CARCINOMA): active; positive

Structure (SMILES): O=Cc1ccc(CCl)o1
- carcinogen call (Species: MOUSE, Strain/Sex: B6C3F1/MALE, Route: INTRAPERITONEAL, Dose: 0, 0.1, 0.25 UMOL/G IN 5 µL DMSO/G BW ONCE (STUDY DURATION: 10 MO), Dose: 0, 0.1, 0.25 UMOL/G IN 5 µL DMSO/G BW ONCE (STUDY DURATION: 10 MO), Tumor Site: Type of Lesion: LIVER: TUMOR): active; positive

Structure (SMILES): Nc1cc([N+](=O)[O-])ccc1NC(CO)(CO)CO
- carcinogen call (Species: RAT, Strain/Sex: SPRAGUE-DAWLEY/FEMALE, Route: ORAL, Dose: 0, 0.2, 0.6, 2% IN DIET OF MATED AND NONMATED RATS FOR UP TO 6 MO (STUDY DURATION: 6 MO), Dose: 0, 0.2, 0.6, 2% IN DIET OF MATED AND NONMATED RATS FOR UP TO 6 MO (STUDY DURATION: 6 MO), Tumor Site: Type of Lesion: MAMMARY GLAND: TUMOR): active; positive
- carcinogen call (Species: RAT, Strain/Sex: SPRAGUE-DAWLEY/MALE, Route: ORAL, Dose: 0, 0.2, 0.6, 2% IN DIET FOR UP TO 6 MO (STUDY DURATION: 6 MO), Dose: 0, 0.2, 0.6, 2% IN DIET FOR UP TO 6 MO (STUDY DURATION: 6 MO)): inactive; negative

Structure (SMILES): CCCCN(CCCC)N=O
- carcinogen call (Species: GUINEA PIG, Route: ORAL, Tumor Site: Type of Lesion: LIVER): active; positive
- carcinogen call (Species: HAMSTER, Route: GAVAGE, Tumor Site: Type of Lesion: LUNG, RESPIRATORY TRACT, TRACHEA, FORESTOMACH, Tumor Site: Type of Lesion: LUNG, RESPIRATORY TRACT, TRACHEA, FORESTOMACH): active; positive
- carcinogen call (Species: HAMSTER, Route: INTRAPERITONEAL, Tumor Site: Type of Lesion: RESPIRATORY TRACT): active; positive
- carcinogen call (Species: HAMSTER, Route: SUBCUTANEOUS, Tumor Site: Type of Lesion: TRACHEA, URINARY BLADDER, FORESTOMACH, RESPIRATORY TRACT, Tumor Site: Type of Lesion: TRACHEA, URINARY BLADDER, FORESTOMACH, RESPIRATORY TRACT): active; positive
- carcinogen call (Species: MOUSE, Route: INTRAVENOUS, Tumor Site: Type of Lesion: HEMATOPOIETIC SYSTEM (LEUKEMIA)): active; positive
- carcinogen call (Species: MOUSE, Route: ORAL, Tumor Site: Type of Lesion: ESOPHAGUS, FORESTOMACH, LIVER, URINARY BLADDER, Tumor Site: Type of Lesion: ESOPHAGUS, FORESTOMACH, LIVER, URINARY BLADDER): active; positive
- carcinogen call (Species: MOUSE, Route: SUBCUTANEOUS, Tumor Site: Type of Lesion: URINARY BLADDER, LUNG): active; positive
- carcinogen call (Species: RABBIT, Route: SUBCUTANEOUS, Tumor Site: Type of Lesion: URINARY BLADDER): active; positive
- carcinogen call (Species: RAT, Route: ORAL, Tumor Site: Type of Lesion: ESOPHAGUS, LIVER, URINARY BLADDER, Tumor Site: Type of Lesion: ESOPHAGUS, LIVER, URINARY BLADDER): active; positive
- carcinogen call (Species: RAT, Route: SUBCUTANEOUS, Tumor Site: Type of Lesion: URINARY BLADDER, LUNG): active; positive
